Drawing on patent US9586961B2, “Homopiperazine derivatives as protein tyrosine kinase inhibitors and pharmaceutical use thereof” (LEO PHARMA A/S, priority 2010, dated 2017), this text covers EC50 for 19 molecules.

pEC50: −log10 of the molar value.

Common to all, as to type: biochemical
The target in assay [1] is T1, JAK1 (Homo sapiens, UniProt P23458).
T1 construct: JAK1 (aa 850-1154) and TYK2 (aa 871-1187) are expressed with an N-terminally fused GST-tag; GST (N); purchased Carna Biosciences, Inc; host or cells: baculovirus expression system
The assay can be described thus: JAK1 kinase assay (HTRF, inhibition of phosphorylation of a synthetic peptide). As to conditions: catalytic domain aa 850-1154, GST-tag; 7 μM ATP (Km); read-out: JAK1 kinase inhibitory activity (EC50). Put shortly: (§1)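 HTRF detection (streptavidin-XL665, cryptate anti-phospho antibody, overnight in the dark) after EDTA stop of a 20-30 min RT reaction on 1 μM TK substrate-biotin. Km-level ATP per kinase: 7 μM for JAK1 and 13 μM for TYK2, both N-terminal GST, with 50 nM SEB; 4 μM for JAK2 and 2 μM for JAK3, both His-tagged. Catalytic domains only; DMSO 0.75%.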
A general note: TR-FRET usually uses a lanthanide donor and a delayed reading to cut background.

The target of assay [2] is T2, JAK2 (Homo sapiens, UniProt O60674).
T2 construct: All four purified enzymes contain only the catalytic domain; His (N); purchased Carna Biosciences, Inc; host or cells: baculovirus expression system
The assay can be described thus: JAK2 kinase assay (HTRF, inhibition of phosphorylation of a synthetic peptide). The settings on record: catalytic domain, His-tag; 4 μM ATP (Km); read-out: JAK2 kinase inhibitory activity (EC50). Put shortly: as §1

Assay [3] has as its target T3, JAK3 (Homo sapiens, UniProt P52333).
T3 construct: All four purified enzymes contain only the catalytic domain; His (N); purchased Carna Biosciences, Inc; host or cells: baculovirus expression system
As to the kind of experiment: JAK3 kinase assay (HTRF, inhibition of phosphorylation of a synthetic peptide). As to conditions: catalytic domain, His-tag; 2 μM ATP (Km); read-out: JAK3 kinase inhibitory activity (EC50). Put shortly:
as §1

The target of assay [4] is T4, TYK2 (Homo sapiens, UniProt P29597).
T4 construct: JAK1 (aa 850-1154) and TYK2 (aa 871-1187) are expressed with an N-terminally fused GST-tag; GST (N); purchased Carna Biosciences, Inc; host or cells: baculovirus expression system
T4 sequence (P29597 871-1187): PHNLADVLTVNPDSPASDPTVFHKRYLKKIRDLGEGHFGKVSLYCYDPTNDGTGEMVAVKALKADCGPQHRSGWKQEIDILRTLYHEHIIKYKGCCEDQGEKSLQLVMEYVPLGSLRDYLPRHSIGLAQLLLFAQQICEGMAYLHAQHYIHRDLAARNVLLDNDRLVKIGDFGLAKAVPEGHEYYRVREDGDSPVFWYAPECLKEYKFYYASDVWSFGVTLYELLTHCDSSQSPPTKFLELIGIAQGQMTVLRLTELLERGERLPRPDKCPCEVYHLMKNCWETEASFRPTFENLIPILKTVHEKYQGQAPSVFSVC
As to the kind of experiment: TYK2 kinase assay (HTRF, inhibition of phosphorylation of a synthetic peptide). The settings on record: catalytic domain aa 871-1187, GST-tag; 13 μM ATP (Km); read-out: TYK2 kinase inhibitory activity (EC50). Put shortly:
as §1

T1 sequence (P23458 850-1154): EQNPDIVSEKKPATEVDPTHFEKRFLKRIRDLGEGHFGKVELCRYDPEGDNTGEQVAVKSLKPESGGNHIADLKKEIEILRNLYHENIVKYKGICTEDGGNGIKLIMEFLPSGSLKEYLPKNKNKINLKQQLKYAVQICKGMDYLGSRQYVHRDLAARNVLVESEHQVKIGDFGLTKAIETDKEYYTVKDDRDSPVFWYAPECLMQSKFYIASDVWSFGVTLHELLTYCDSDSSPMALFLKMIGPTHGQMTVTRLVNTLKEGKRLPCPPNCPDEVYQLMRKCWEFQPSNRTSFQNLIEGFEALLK
T2 sequence (O60674 849-1124 limits assumed): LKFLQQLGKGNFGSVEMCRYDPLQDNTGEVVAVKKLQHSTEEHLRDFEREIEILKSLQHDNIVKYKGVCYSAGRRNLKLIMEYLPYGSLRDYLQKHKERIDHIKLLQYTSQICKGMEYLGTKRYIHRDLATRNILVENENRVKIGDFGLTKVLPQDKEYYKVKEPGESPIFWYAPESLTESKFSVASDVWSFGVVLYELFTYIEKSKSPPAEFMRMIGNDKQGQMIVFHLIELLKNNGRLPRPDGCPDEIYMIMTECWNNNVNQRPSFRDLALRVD
T3 sequence (P52333 822-1111 limits assumed): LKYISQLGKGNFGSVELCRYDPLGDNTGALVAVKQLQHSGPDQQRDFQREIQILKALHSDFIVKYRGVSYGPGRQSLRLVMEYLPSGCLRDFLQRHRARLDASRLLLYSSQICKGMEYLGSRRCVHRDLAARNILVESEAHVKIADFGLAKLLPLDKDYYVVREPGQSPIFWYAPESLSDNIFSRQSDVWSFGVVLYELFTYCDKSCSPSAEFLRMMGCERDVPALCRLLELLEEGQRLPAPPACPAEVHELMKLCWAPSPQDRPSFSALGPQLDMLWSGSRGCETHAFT

For orientation: pEC50 means the negative decadic logarithm of the EC50, by convention in mol/L. Consider `CCCc1csc(C(=O)N2CCN(c3ncnc4[nH]ccc34)CC3(CC3)C2)c1` [Example 78, (4-propyl-2-thienyl)-[5-(7H-pyrrolo[2,3-d]pyrimidin-4-yl)-5,8-diazaspiro[2.6]nonan-8-yl]methanone], for which the pEC50 in assay [1] was 6.00 to 7.00; in assay [2] it was 6.00 to 7.00; in assay [3], 6.00 to 7.00; in assay [4] it was less than 6.00.
For `Cc1cc(CC(=O)N2CCN(c3ncnc4[nH]ccc34)CC3(CC3)C2)no1` [Example 87, 2-(5-methylisoxazol-3-yl)-1-[5-(7H-pyrrolo[2,3-d]pyrimidin-4-yl)-5,8-diazaspiro[2.6]nonan-8-yl]ethanone], the pEC50 in assay [1] is more than 7.00; in assay [2] it was more than 7.00; in assay [3] it was 6.00 to 7.00; in assay [4], 6.00 to 7.00.
As to `O=C(Nc1ccccc1)N1CCCN(c2ncnc3[nH]ccc23)CC12CC2` [Example 90, N-phenyl-5-(7H-pyrrolo[2,3-d]pyrimidin-4-yl)-5,9-diazaspiro[2.6]nonane-9-carboxamide], the pEC50 is more than 7.00 in assay [1], 6.00 to 7.00 in assay [2], 6.00 to 7.00 in assay [3] and less than 6.00 in assay [4].
On to `S=C(Nc1ccccc1)N1CCCN(c2ncnc3[nH]ccc23)CC12CC2` [Example 91, N-phenyl-5-(7H-pyrrolo[2,3-d]pyrimidin-4-yl)-5,9-diazaspiro[2.6]nonane-9-carbothioamide], for which the negative-log EC50 (pEC50) in assay [1] is more than 7.00; in assay [2], more than 7.00; in assay [3] it was 6.00 to 7.00; in assay [4], less than 6.00.
As to `O=C(CC1CCCC1)N1CCCN(c2ncnc3[nH]ccc23)CC12CC2` [Example 92, 2-cyclopentyl-1-[5-(7H-pyrrolo[2,3-d]pyrimidin-4-yl)-5,9-diazaspiro[2.6]nonan-9-yl]ethanone], the pEC50 in assay [1] is more than 7.00; in assay [2], 6.00 to 7.00; in assay [3] it was 6.00 to 7.00; in assay [4], less than 6.00.
In the case of `O=C(C1CCCCC1)N1CCCN(c2ncnc3[nH]ccc23)CC12CC2` [Example 93, cyclohexyl-[5-(7H-pyrrolo[2,3-d]pyrimidin-4-yl)-5,9-diazaspiro[2.6]nonan-9-yl]methanone], the pEC50 in assay [1] was more than 7.00; in assay [2], more than 7.00; in assay [3] it was 6.00 to 7.00; in assay [4], 6.00 to 7.00.
Take `Cc1ccc(S(=O)(=O)N2CCCN(c3ncnc4[nH]ccc34)CC23CC3)cc1` [Example 94, 4-[9-(p-tolylsulfonyl)-5,9-diazaspiro[2.6]nonan-5-yl]-7H-pyrrolo[2,3-d]pyrimidine]: the pEC50 in assay [1], in assay [2], in assay [3] and in assay [4] was less than 6.00 throughout.
Consider `S=C(CC1CCCC1)N1CCCN(c2ncnc3[nH]ccc23)CC12CC2` [Example 95, 2-cyclopentyl-1-[5-(7H-pyrrolo[2,3-d]pyrimidin-4-yl)-5,9-diazaspiro[2.6]nonan-9-yl]ethanethione], for which the pEC50 in assay [1] is more than 7.00; in assay [2], 6.00 to 7.00; in assay [3], 6.00 to 7.00; in assay [4], less than 6.00.
For the molecule `CCCCS(=O)(=O)N1CCN(c2ncnc3[nH]ccc23)CC2(CC2)C1` [Example 97, 4-(8-butylsulfonyl-5,8-diazaspiro[2.6]nonan-5-yl)-7H-pyrrolo[2,3-d]pyrimidine], the pEC50 in assay [1] was 6.00 to 7.00; in assay [2] it was 6.00 to 7.00; in assay [3], less than 6.00; in assay [4] it was less than 6.00.
Regarding `Cc1ccc(S(=O)(=O)N2CC3(CC3)CN(c3ncnc4[nH]ccc34)CC2C)cc1` (stereo not shown) [Example 98, 4-[7-methyl-8-(p-tolylsulfonyl)-5,8-diazaspiro[2.6]nonan-5-yl]-7H-pyrrolo[2,3-d]pyrimidine], the pEC50 in assay [1], in assay [2], in assay [3] and in assay [4] was less than 6.00 in each case.
`CC1CN(c2ncnc3[nH]ccc23)CC2(CC2)CN1C(=O)Nc1ccccc1` (stereo not shown) [Example 99, 7-methyl-N-phenyl-5-(7H-pyrrolo[2,3-d]pyrimidin-4-yl)-5,8-diazaspiro[2.6]nonane-8-carboxamide]: the negative logarithm of the EC50 (pEC50) in assay [1], in assay [2], in assay [3] and in assay [4] was less than 6.00 each time.
For the molecule `N#Cc1ccc(C(=O)C(=O)N2CCN(c3ncnc4[nH]ccc34)CC3(CC3)C2)cc1` [Example 100, 4-[2-oxo-2-[5-(7H-pyrrolo[2,3-d]pyrimidin-4-yl)-5,8-diazaspiro[2.6]nonan-8-yl]acetyl]benzonitrile], the pEC50 in assay [1] was more than 7.00; in assay [2], more than 7.00; in assay [3], less than 6.00; in assay [4], less than 6.00.
Consider `NS(=O)(=O)c1ccc2[nH]c(C(=O)N3CCN(c4ncnc5[nH]ccc45)CC4(CC4)C3)cc2c1` [Example 101, 2-[5-(7H-pyrrolo[2,3-d]pyrimidin-4-yl)-5,8-diazaspiro[2.6]nonane-8-carbonyl]-1H-indole-5-sulfonamide], for which the pEC50 in assay [1] was more than 7.00; in assay [2], more than 7.00; in assay [3], 6.00 to 7.00; in assay [4], 6.00 to 7.00.
With `CS(=O)(=O)Nc1ccc(C(=O)N2CCN(c3ncnc4[nH]ccc34)CC3(CC3)C2)cc1` [Example 102, N-[4-[5-(7H-pyrrolo[2,3-d]pyrimidin-4-yl)-5,8-diazaspiro[2.6]nonane-8-carbonyl]phenyl]methanesulfonamide], the pEC50 in assay [1] was 6.00 to 7.00; in assay [2], 6.00 to 7.00; in assay [3] it was 6.00 to 7.00; in assay [4] it was less than 6.00.
Take `CN(CCC#N)S(=O)(=O)N1CCN(c2ncnc3[nH]ccc23)CC2(CC2)C1` [Example 103, N-(2-cyanoethyl)-N-methyl-5-(7H-pyrrolo[2,3-d]pyrimidin-4-yl)-5,8-diazaspiro[2.6]nonane-8-sulfonamide]: the negative-log EC50 (pEC50) in assay [1] is 6.00 to 7.00; in assay [2], 6.00 to 7.00; in assay [3] it was less than 6.00; in assay [4], less than 6.00.
In the case of `CCN(CC)S(=O)(=O)N1CCN(c2ncnc3[nH]ccc23)CC2(CC2)C1` [Example 104, N,N-diethyl-5-(7H-pyrrolo[2,3-d]pyrimidin-4-yl)-5,8-diazaspiro[2.6]nonane-8-sulfonamide], the pEC50 in assay [1] is less than 6.00; in assay [2], 6.00 to 7.00; in assay [3], less than 6.00; in assay [4], less than 6.00.
As for `CN(C1CCCCC1)S(=O)(=O)N1CCN(c2ncnc3[nH]ccc23)CC2(CC2)C1` [Example 105, N-cyclohexyl-N-methyl-5-(7H-pyrrolo[2,3-d]pyrimidin-4-yl)-5,8-diazaspiro[2.6]nonane-8-sulfonamide], the pEC50 in assay [1] was 6.00 to 7.00; in assay [2], 6.00 to 7.00; in assay [3], less than 6.00; in assay [4], less than 6.00.
As to `N#Cc1ccc(OCC(=O)N2CCN(c3ncnc4[nH]ccc34)CC3(CC3)C2)cc1` [Example 106, 4-[2-oxo-2-[5-(7H-pyrrolo[2,3-d]pyrimidin-4-yl)-5,8-diazaspiro[2.6]nonan-8-yl]ethoxy]benzonitrile], the pEC50 is more than 7.00 in assay [1], more than 7.00 in assay [2], 6.00 to 7.00 in assay [3] and 6.00 to 7.00 in assay [4].
As to `c1ccc(CN2CCN(c3ncnc4[nH]ccc34)CC3(CC3)C2)cc1` [Example 107, 4-(5-benzyl-5,8-diazaspiro[2.6]nonan-8-yl)-7H-pyrrolo[2,3-d]pyrimidine], the pEC50 in assay [1], in assay [2], in assay [3] and in assay [4] was less than 6.00 each time.
